{"source": "patent US20150133297A1", "about": "“NEW ANTIFUNGAL COMPOSITIONS” (DSM IP ASSETS B.V., priority 2012, published 2015)", "key": {"Botrytis cinerea": {"tested_on": "Botrytis cinerea", "assay": "Treatment of sweet peppers (Example 10)", "assay_type": "in vivo", "conditions": "20° C., 150 ppm spiroxamine or both", "experimental": "Ten fresh, organic sweet peppers were used per treatment. Each sweet pepper was soaked in a 180 ppm hypochlorite solution for 10 minutes, then rinsed thoroughly with fresh tap water and dried. The peel of each disinfected sweet pepper was wounded once using a cork borer according to the method described by de Lapeyre de Bellaire and Dubois (1987). Subsequently, each wound was inoculated with 10 μl of a Botrytis cinerea suspension containing 1×10^5 of spores/ml. After incubation for 3 hours at 20° C., each wound and the skin area of 0.5 cm around the wound was treated with in total 75 μl of a freshly prepared aqueous antifungal composition comprising either 200 ppm natamycin (DSM Food Specialties, Delft, The Netherlands), 150 ppm spiroxamine or both. […]\nThe treated sweet peppers were incubated in a closed box in the dark at 20° C. and assessed on mould growth during incubation. The antifungal activity (in %) of the individual and combined active ingredients was determined by calculating the reduction in mould growth observed on the sweet peppers treated with the antifungal composition in comparison to the mould growth on the sweet peppers treated with the control composition according to the Colby method (Colby, 1967) as described in Example 5."}, "Penicillium italicum": {"tested_on": "Penicillium italicum", "assay": "Treatment of oranges (Examples 6-9): wounded, inoculated, wound treated with antifungal composition", "assay_type": "in vivo", "conditions": "for Observed antifungal activity O (%): oranges, 20° C.", "experimental": "During incubation, mould growth on the strawberries was assessed in a twofold manner: (i) the number of moulded strawberries per total of 12 strawberries was counted; and (ii) the antifungal activity (in %) of the individual and combined active ingredients was determined by calculating the reduction in mould growth observed on the strawberries treated with the antifungal composition in comparison to the mould growth on the strawberries treated with the control composition. The expected antifungal activity (E in %) of the combined antifungal composition comprising both active ingredients was calculated according to the Colby equation (Colby, 1967): […]\nEight fresh, organic oranges were used per treatment. Each orange was soaked in a 180 ppm hypochlorite solution for 10 minutes, then rinsed thoroughly with fresh tap water and dried. The peel of each disinfected orange was wounded once using a cork borer according to the method described by de Lapeyre de Bellaire and Dubois (1987). Subsequently, each wound was inoculated with 10 μl of a Penicillium italicum suspension containing 5×10^5 of spores/ml. After incubation for 3 hours at 20° C., each wound and the orange peel area of 1 cm around the wound was treated with in total 150 μl of a freshly prepared aqueous antifungal composition comprising either 500 ppm natamycin (DSM Food Specialties, Delft, The Netherlands), 500 ppm fenpropidin or both. Each antifungal composition also comprised 3.2% (w/w) beeswax, 0.8% (w/w) glycerol, 0.7% (w/w) polyoxyethylene sorbitan monostearate (Tween 60), 0.1% (w/w) polyoxyethylene sorbitan monooleate (Tween 80), 0.05% (w/w) methylhydroxyethyl-cellulose (MHEC), 0.03% (w/w) anti-foaming agent, 0.02% (w/w) xanthan gum, 0.02% (w/w) citric acid, 0.01% (w/w) lactic acid and 0.01% potassium sorbate. A composition without natamycin or fenpropidin was used as control. […] The treated oranges were incubated in a closed box in the dark at 20° C. and assessed on mould growth during a 28-day incubation period. The antifungal activity (in %) of the individual and combined active ingredients was determined by calculating the reduction in mould growth observed on the oranges treated with the antifungal composition in comparison to the mould growth on the oranges treated with the control composition according to the Colby method (Colby, 1967) as described in Example 5.\nThe experiment was conducted as described in Example 6, except for the fact that each wounded and inoculated orange was treated with 150 μl of a freshly prepared aqueous antifungal composition comprising either 250 ppm natamycin (DSM Food Specialties, Delft, The Netherlands), 250 ppm fenpropidin or both. During the 26-day incubation period, the treated oranges were assessed on mould growth according to the two methods described in Example 5.\nThe experiment was conducted as described in Example 6, except for the fact that each wounded and inoculated orange was treated with 150 μl of a freshly prepared aqueous antifungal composition comprising either 500 ppm natamycin (DSM Food Specialties, Delft, The Netherlands), 400 ppm spiroxamine or both. During the 26-day incubation period, the treated oranges were assessed on mould growth according to the two methods described in Example 5.\nThe experiment was conducted as described in Example 6, except for the fact that each wounded and inoculated orange was treated with 150 μl of a freshly prepared aqueous antifungal composition comprising either 250 ppm natamycin (DSM Food Specialties, Delft, The Netherlands), 200 ppm spiroxamine or both. During the 26-day incubation period, the treated oranges were assessed on mould growth according to the two methods described in Example 5."}}, "note": "Where “and” joins values, the source holds several entries; their conditions need not be identical. Equal values may be shown once."}
{"smiles": "CCCN(CC)CC1COC2(CCC(C(C)(C)C)CC2)O1", "note": "(centres unmarked) [Spiroxamine, spiroxamine]", "values": [{"measurement": "Observed antifungal activity O (%)", "setting": "Botrytis cinerea; day 12, 200 ppm natamycin", "result": 0, "unit": "%"}, {"measurement": "Observed antifungal activity O (%)", "setting": "Botrytis cinerea; day 13, 200 ppm natamycin", "result": 0, "unit": "%"}, {"measurement": "Number of moulded oranges/total number of 8 oranges", "setting": "Penicillium italicum; Day 11, 20° C., 250 ppm natamycin, 200 ppm spiroxamine or both", "result": "7 and 7/8"}, {"measurement": "Number of moulded oranges/total number of 8 oranges", "setting": "Penicillium italicum; Day 12, 20° C., 250 ppm natamycin, 200 ppm spiroxamine or both", "result": "8 and 8/8"}, {"measurement": "Number of moulded oranges/total number of 8 oranges", "setting": "Penicillium italicum; Day 13, 20° C., 250 ppm natamycin, 200 ppm spiroxamine or both", "result": "8/8"}, {"measurement": "Number of moulded oranges/total number of 8 oranges", "setting": "Penicillium italicum; Day 14-15, 20° C., 250 ppm natamycin, 200 ppm spiroxamine or both", "result": "8/8"}, {"measurement": "Number of moulded oranges/total number of 8 oranges", "setting": "Penicillium italicum; Day 14-16, 20° C., 500 ppm natamycin, 400 ppm spiroxamine or both", "result": "8/8"}, {"measurement": "Number of moulded oranges/total number of 8 oranges", "setting": "Penicillium italicum; Day 16, 20° C., 250 ppm natamycin, 200 ppm spiroxamine or both", "result": "8 and 8/8"}, {"measurement": "Number of moulded oranges/total number of 8 oranges", "setting": "Penicillium italicum; Day 18, 20° C., 250 ppm natamycin, 200 ppm spiroxamine or both", "result": "8 and 8/8"}, {"measurement": "Number of moulded oranges/total number of 8 oranges", "setting": "Penicillium italicum; Day 18, 20° C., 500 ppm natamycin, 400 ppm spiroxamine or both", "result": "8/8"}, {"measurement": "Number of moulded oranges/total number of 8 oranges", "setting": "Penicillium italicum; Day 19-21, 20° C., 500 ppm natamycin, 400 ppm spiroxamine or both", "result": "8 and 8/8"}, {"measurement": "Number of moulded oranges/total number of 8 oranges", "setting": "Penicillium italicum; Day 19-25, 20° C., 250 ppm natamycin, 200 ppm spiroxamine or both", "result": "8/8"}, {"measurement": "Number of moulded oranges/total number of 8 oranges", "setting": "Penicillium italicum; Day 22-23, 20° C., 500 ppm natamycin, 400 ppm spiroxamine or both", "result": "8 and 8/8"}, {"measurement": "Number of moulded oranges/total number of 8 oranges", "setting": "Penicillium italicum; Day 26, 20° C., 250 ppm natamycin, 200 ppm spiroxamine or both", "result": "8/8"}, {"measurement": "moulded oranges of the 8 oranges", "setting": "Penicillium italicum; after 14 through 16 days and 18 days of incubation, 500 ppm natamycin, 400 ppm spiroxamine", "result": 8}, {"measurement": "moulded oranges of the 8 oranges", "setting": "Penicillium italicum; days 13 through 15, 250 ppm natamycin, 200 ppm spiroxamine or both", "result": 8}, {"measurement": "moulded oranges of the 8 oranges", "setting": "Penicillium italicum; days 19 through 26, 250 ppm natamycin, 200 ppm spiroxamine or both", "result": 8}, {"measurement": "Observed antifungal activity O (%)", "setting": "Penicillium italicum; day 11, 250 ppm natamycin, 200 ppm spiroxamine or both", "result": 75, "unit": "%"}, {"measurement": "Observed antifungal activity O (%)", "setting": "Penicillium italicum; day 12, 250 ppm natamycin, 200 ppm spiroxamine or both", "result": 64, "unit": "%"}, {"measurement": "Observed antifungal activity O (%)", "setting": "Penicillium italicum; day 13, 250 ppm natamycin, 200 ppm spiroxamine or both", "result": 48, "unit": "%"}, {"measurement": "Observed antifungal activity O (%)", "setting": "Penicillium italicum; day 14, 250 ppm natamycin, 200 ppm spiroxamine or both", "result": 39, "unit": "%"}, {"measurement": "Observed antifungal activity O (%)", "setting": "Penicillium italicum; day 15, 250 ppm natamycin, 200 ppm spiroxamine or both", "result": 31, "unit": "%"}, {"measurement": "Observed antifungal activity O (%)", "setting": "Penicillium italicum; day 16, 250 ppm natamycin, 200 ppm spiroxamine or both", "result": 20, "unit": "%"}, {"measurement": "Observed antifungal activity O (%)", "setting": "Penicillium italicum; day 18, 250 ppm natamycin, 200 ppm spiroxamine or both", "result": 3, "unit": "%"}, {"measurement": "Observed antifungal activity O (%)", "setting": "Penicillium italicum; day 18, 500 ppm natamycin, 400 ppm spiroxamine or both", "result": 22, "unit": "%"}, {"measurement": "Observed antifungal activity O (%)", "setting": "Penicillium italicum; day 19, 250 ppm natamycin, 200 ppm spiroxamine or both", "result": 0, "unit": "%"}, {"measurement": "Observed antifungal activity O (%)", "setting": "Penicillium italicum; day 19, 500 ppm natamycin, 400 ppm spiroxamine or both", "result": 8, "unit": "%"}, {"measurement": "Observed antifungal activity O (%)", "setting": "Penicillium italicum; day 20, 250 ppm natamycin, 200 ppm spiroxamine or both", "result": 0, "unit": "%"}, {"measurement": "Observed antifungal activity O (%)", "setting": "Penicillium italicum; day 20, 500 ppm natamycin, 400 ppm spiroxamine or both", "result": 0, "unit": "%"}, {"measurement": "Observed antifungal activity O (%)", "setting": "Penicillium italicum; day 21, 250 ppm natamycin, 200 ppm spiroxamine or both", "result": 0, "unit": "%"}, {"measurement": "Observed antifungal activity O (%)", "setting": "Penicillium italicum; day 21, 500 ppm natamycin, 400 ppm spiroxamine or both", "result": 0, "unit": "%"}, {"measurement": "Observed antifungal activity O (%)", "setting": "Penicillium italicum; day 22, 250 ppm natamycin, 200 ppm spiroxamine or both", "result": 0, "unit": "%"}, {"measurement": "Observed antifungal activity O (%)", "setting": "Penicillium italicum; day 22, 500 ppm natamycin, 400 ppm spiroxamine or both", "result": 0, "unit": "%"}, {"measurement": "Observed antifungal activity O (%)", "setting": "Penicillium italicum; day 23, 250 ppm natamycin, 200 ppm spiroxamine or both", "result": 0, "unit": "%"}, {"measurement": "Observed antifungal activity O (%)", "setting": "Penicillium italicum; day 23, 500 ppm natamycin, 400 ppm spiroxamine or both", "result": 0, "unit": "%"}, {"measurement": "Observed antifungal activity O (%)", "setting": "Penicillium italicum; day 25-26, 500 ppm natamycin, 400 ppm spiroxamine or both", "result": 0, "unit": "%"}, {"measurement": "Observed antifungal activity O (%)", "setting": "Penicillium italicum; day 25, 250 ppm natamycin, 200 ppm spiroxamine or both", "result": 0, "unit": "%"}, {"measurement": "Observed antifungal activity O (%)", "setting": "Penicillium italicum; day 26, 250 ppm natamycin, 200 ppm spiroxamine or both", "result": 0, "unit": "%"}]}
